Reference: PubChem BioAssay (NCI)
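Test compounds were applied to cells in 96-well plates for 48 hours at 5 doses. Abbreviation: GI50, concentration required for 50% inhibition of growth. At the TGI there is no net growth.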

Assays:
Assay in all cases: inhibition of tumour cell growth, NCI panel, 48 h
KM12 colon = system: KM12 colon
NCI-H522 lung = system: NCI-H522 lung
MDA-N = system: MDA-N
OVCAR-5 ovarian = system: OVCAR-5 ovarian
786-0 renal = system: 786-0 renal
IGROV1 ovarian = system: IGROV1 ovarian
MCF7 breast = system: MCF7 breast
M14 melanoma = system: M14 melanoma
UACC-257 melanoma = system: UACC-257 melanoma
SNB-75 CNS = system: SNB-75 CNS
TK-10 renal = system: TK-10 renal

SMILES | TGI (KM12 colon) | TGI (NCI-H522 lung) | TGI (MDA-N) | TGI (OVCAR-5 ovarian) | TGI (786-0 renal) | TGI (IGROV1 ovarian) | TGI (MCF7 breast) | TGI (M14 melanoma) | TGI (UACC-257 melanoma) | TGI (SNB-75 CNS) | TGI (TK-10 renal) | GI50 (KM12 colon) | GI50 (NCI-H522 lung) | GI50 (OVCAR-5 ovarian) | GI50 (IGROV1 ovarian) | GI50 (MCF7 breast) | GI50 (TK-10 renal) | GI50 (M14 melanoma) | GI50 (UACC-257 melanoma) | GI50 (SNB-75 CNS)
CC1(CCc2ccccc2)CC1(Br)Br (configuration not stated) | > 100 µM | 61.5 µM | > 100 µM | > 100 µM | 57.5 µM | > 100 µM | > 100 µM | > 100 µM | 83.6 µM | > 100 µM |  |  |  |  |  |  |  |  |  | 
N#Cc1ccc(/C=N/NC(=O)CSCC(=O)N/N=C/c2ccc(C#N)cc2)cc1 | > 100 µM | > 100 µM |  | > 100 µM | > 100 µM | > 100 µM | > 100 µM | > 100 µM | > 100 µM | 81.9 µM | > 100 µM |  |  |  |  |  |  |  |  | 
CN1c2ccccc2C(=O)NC12CCN(Cc1ccccc1)CC2 | > 100 µM |  |  | > 100 µM | > 100 µM | > 100 µM | > 100 µM | > 100 µM | > 100 µM | > 100 µM | > 100 µM |  |  |  |  |  |  |  |  | 
Cc1ccc(S(=O)(=O)NC(=O)NC(Cc2ccccc2)C(=O)O)cc1 (configuration not stated) | > 100 µM | > 100 µM |  | > 100 µM | > 100 µM | > 100 µM | > 100 µM | > 100 µM | > 100 µM | > 100 µM | > 100 µM |  |  |  |  |  |  |  |  | 
O=C(Nc1ccc(Cl)cc1)c1cccc([N+](=O)[O-])c1O | > 62.4 µM | 6.36 µM |  | > 100 µM | > 56.7 µM | > 80.3 µM |  | 32.9 µM | 8.13 µM | 26.1 µM | > 44.4 µM |  |  |  |  |  |  |  |  | 
CCC(C)NC(=S)N/N=C(\C)c1ccccn1 (configuration not stated) | > 100 µM | 51.4 µM | > 80 µM | > 100 µM | > 100 µM | > 30.7 µM |  |  |  |  | > 100 µM |  |  |  |  |  |  |  |  | 
O=C(Nc1ccc(-n2cc(-c3ccncc3)c(-c3ccc(O)c(Cl)c3)n2)cc1)c1cc(Cl)cc(Cl)c1 | > 32.5 µM | > 32.5 µM |  | > 32.5 µM |  | > 32.5 µM | > 32.5 µM | 1.68 µM | > 32.5 µM | > 32.5 µM | > 32.5 µM | 1.47 µM | 1.03 µM | > 32.5 µM | > 32.5 µM | 3.33 µM | 6.8 µM | 0.712 µM | 13.8 µM | 1.35 µM
c1nncn1C12C3C4C5C3C1C5C42 (configuration not stated) | > 100 µM | > 100 µM | > 100 µM | > 100 µM | > 100 µM | > 100 µM | > 100 µM |  | > 100 µM | > 100 µM | > 100 µM |  |  |  |  |  |  |  |  | 
C\C=C/C=C/C=C/C(=O)O | > 100 µM | > 100 µM |  | > 100 µM | > 100 µM | > 100 µM |  | > 100 µM | > 100 µM | > 100 µM |  |  |  |  |  |  |  |  |  | 
N#CCN1CCCCCc2ccccc21 | > 100 µM |  |  | > 100 µM | > 100 µM | > 100 µM | > 100 µM | > 100 µM | > 100 µM | > 100 µM | > 100 µM |  |  |  |  |  |  |  |  | 
CC1(C)C2CCC1(C)C(N/C(=C(/C(Cl)=C(Cl)Cl)[N+](=O)[O-])n1nnc3ccccc31)C2 (configuration not stated) | 87.9 µM |  | > 100 µM | > 100 µM | > 100 µM |  | > 100 µM | > 100 µM | > 100 µM | 70 µM |  |  |  |  |  |  |  |  |  | 
CCOP(=O)(CC1CC(O)(CNc2cc(Cl)nc(N)n2)C1)OCC (configuration not stated) | > 100 µM | > 100 µM | > 100 µM | > 100 µM | > 100 µM | > 100 µM | > 100 µM |  | > 100 µM | > 100 µM | > 100 µM |  |  |  |  |  |  |  |  | 
CSc1nc2c(c(=O)n1C)N=C(c1ccc(Cl)cc1)CC(c1ccccc1)N2 (configuration not stated) | 31.7 µM | 47.9 µM | 30.3 µM | > 100 µM | > 100 µM | 55.4 µM | 27.2 µM | 34.7 µM | 54.8 µM | 37.2 µM |  |  |  |  |  |  |  |  |  | 
O=c1c(/C=C/c2c(O)ccc3ccccc23)nnc2sc(-c3cccc([N+](=O)[O-])c3)nn12 | > 100 µM | 28.1 µM | > 100 µM | > 100 µM | > 100 µM | > 100 µM |  | 68.4 µM | 51 µM |  | 89.3 µM |  |  |  |  |  |  |  |  | 
COc1cc(C(=O)O[C@H](C(=O)NCCNC(=O)[C@@H](OC(=O)c2cc(OC)cc3c(C)cccc23)[C@]2(C)CO2)[C@]2(C)CO2)c2cccc(C)c2c1 | 0.278 µM |  |  | 2.08 µM |  | 5.28 µM | 0.0238 µM | 0.696 µM | 0.343 µM | 1.4 µM | 1.9 µM | 0.0438 µM |  | 0.381 µM | < 0.0475 µM | < 0.01 µM | 0.475 µM | 0.178 µM |  | 0.304 µM
O=c1[nH]c2nccnc2c2c([N+](=O)[O-])cccc12 | > 100 µM | > 100 µM | > 100 µM | > 100 µM | > 100 µM | > 100 µM | > 100 µM | > 100 µM |  | > 100 µM | > 100 µM |  |  |  |  |  |  |  |  | 
